The results in this text go back to article PMC10855066, “Anti-Inflammatory and Antioxidant Pyrrolo[3,4-d]pyridazinone Derivatives Interact with DNA and Bind to Plasma Proteins—Spectroscopic and In Silico Studies” (International Journal of Molecular Sciences, 2024).

The subject of the test is T1, α1-acid-glycoprotein (AAG); orosomucoid.
T1 construct: gene ORM1; docking only used 3kq0
Description: intrinsic fluorescence quenching, excitation […] nm. The following applies: double-log; 297 K, 0.01 M phosphate buffer pH 7.4, 1.0 µM AAG, ligand stock in EtOH, inner filter corrected. The class given is binding.

Consider `CCCCn1c(C)c2c(OCc3nn(CN4CCC(O)(c5ccc(Cl)cc5)CC4)c(=S)o3)nn(C)c(=O)c2c1C` [compound 2, pyrrolo[3,4-d]pyridazinone derivative 2], for which the “Binding / Kb.10^4 [dm^3.mol^-1]” value is reported as 4.57 × 10^4 dm^3·mol^−1.
Under `Cc1c2c(OCc3nn(CN4CCN(c5ccccc5)CC4)c(=S)o3)nn(C)c(=O)c2c(C)n1-c1ccccc1` [compound 3, pyrrolo[3,4-d]pyridazinone derivative 3] stands 4.57 × 10^4 dm^3·mol^−1.
Then `Cc1c2c(OCc3nn(CN4CCC(O)(c5ccc(Cl)cc5)CC4)c(=S)o3)nn(C)c(=O)c2c(C)n1-c1ccccc1` [compound 5, pyrrolo[3,4-d]pyridazinone derivative 5], with 1.41 × 10^4 dm^3·mol^−1; and `CCCCn1c(C)c2c(OCc3nn(CN4CCN(c5ccccc5)CC4)c(=S)o3)nn(C)c(=O)c2c1C` [compound 1, pyrrolo[3,4-d]pyridazinone derivative 1], with 3.09 × 10^4 dm^3·mol^−1; and `Cc1c2c(OCc3nn(CN4CCN(c5ccc([N+](=O)[O-])cc5)CC4)c(=S)o3)nn(C)c(=O)c2c(C)n1-c1ccccc1` [compound 4, pyrrolo[3,4-d]pyridazinone derivative 4], with 5.01 × 10^4 dm^3·mol^−1.
